Reference: patent US20240016942A1, “STAT DEGRADERS AND USES THEREOF” (Kymera Therapeutics, Inc., priority 2020, published 2024)

Target: T1, STAT3 (Homo sapiens, UniProt P40763)
T1 construct: expressed in transfected cells; host or cells: A549
Experiment: STAT3 HiBiT degradation assay (Nano-Glo HiBiT lytic detection) in transfected A549 cells
Assay type: cell-based
Details: 24 h compound incubation, read-out: STAT3 HiBIT A549 degradation 24 h: Average external-Abs DC50
Outline: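 Transfected A549 cells (~2000/well) treated 24 h at 37° C with compound in 3-fold, 10-point dilution series. HiBiT-tagged STAT3 remaining measured by Nano-Glo HiBiT lytic luminescence, normalised to negative and positive controls; DC50 from four-parameter curve fit.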

T1 sequence (P40763 whole entry): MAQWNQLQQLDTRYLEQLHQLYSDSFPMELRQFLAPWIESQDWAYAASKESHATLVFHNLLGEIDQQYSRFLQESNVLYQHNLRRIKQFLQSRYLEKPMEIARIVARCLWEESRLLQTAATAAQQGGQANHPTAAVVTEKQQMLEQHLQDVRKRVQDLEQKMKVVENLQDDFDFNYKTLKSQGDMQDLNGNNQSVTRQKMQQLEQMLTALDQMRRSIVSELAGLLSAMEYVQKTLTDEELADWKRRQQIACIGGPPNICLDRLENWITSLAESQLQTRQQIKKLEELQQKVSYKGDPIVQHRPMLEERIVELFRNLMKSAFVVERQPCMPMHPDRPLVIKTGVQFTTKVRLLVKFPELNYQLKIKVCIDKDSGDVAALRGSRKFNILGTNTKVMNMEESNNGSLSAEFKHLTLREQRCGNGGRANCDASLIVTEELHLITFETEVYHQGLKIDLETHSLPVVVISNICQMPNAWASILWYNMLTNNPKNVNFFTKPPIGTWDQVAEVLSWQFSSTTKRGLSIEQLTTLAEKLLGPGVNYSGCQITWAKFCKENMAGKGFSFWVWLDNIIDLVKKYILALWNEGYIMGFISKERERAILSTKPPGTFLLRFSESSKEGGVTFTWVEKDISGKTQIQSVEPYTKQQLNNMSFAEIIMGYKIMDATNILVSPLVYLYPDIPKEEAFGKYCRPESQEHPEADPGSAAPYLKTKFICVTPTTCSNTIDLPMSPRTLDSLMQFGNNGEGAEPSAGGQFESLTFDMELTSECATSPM

SMILES | DC50 [nM]
Cc1ncsc1-c1ccc(CNC(=O)[C@@H]2C[C@@H](O)CN2C(=O)[C@@H](c2cc(OCCCc3cccc(OC[C@H](CCC(N)=O)NC(=O)[C@@H]4Cc5cccc6c5N4C(=O)[C@@H](NC(=O)c4cc5cc(C(=O)P(=O)(O)O)ccc5[nH]4)CC6)c3Cl)no2)C(C)C)cc1 [I-63] | < 10
Cc1ncsc1-c1ccc([C@H](C)NC(=O)[C@@H]2C[C@@H](O)CN2C(=O)[C@@H](NC(=O)CCCCCc2cccc(OC[C@H](CCC(N)=O)NC(=O)[C@@H]3CC[C@@H]4CCN(C(=O)C[C@H]5CC[C@@H](Cc6ccc7c(c6)n(C)c(=O)n7C6CCC(=O)NC6=O)CC5)C[C@H](NC(=O)c5cc6cc(C(=O)P(=O)(O)O)ccc6[nH]5)C(=O)N43)c2F)C(C)(C)C)cc1 (stereo partly shown) [I-36] | 10 to 100
Cn1c(=O)n(C2CCC(=O)NC2=O)c2ccc(CCCCCCc3cc4c5c(c3)C[C@@H](C(=O)N[C@@H](CCC(N)=O)C(=O)NCc3ccc(S(C)(=O)=O)cc3)N5C(=O)[C@@H](NC(=O)c3cc5cc(C(=O)P(=O)(O)O)ccc5[nH]3)CC4)cc21 (stereo partly drawn) [I-81, (2-(((3S,6S)-6-(((S)-5-amino-1l-((4-(methylsulfonyl)benzyl)amino)-1,5-dioxopentan-2-yl)carbamoyl)-9-(6-(1-(2,6-dioxopiperidin-3-yl)-3-methyl-2-oxo-2,3-dihydro-1H-benzo[d]imidazol-5-yl)hexyl)-4-oxo-1,2,3,4,6,7-hexahydroazepino[3,2,1-hi]indol-3-yl)carbamoyl)-1H-indole-5-carbonyl)phosphonic acid] | 10 to 100
CNC(=O)N1CC[C@H]2CC[C@@H](C(=O)N[C@@H](CCC(N)=O)COc3cccc(CCCC(=O)N[C@H](C(=O)N4C[C@H](O)C[C@H]4C(=O)N[C@@H](C)c4ccc(-c5scnc5C)cc4)C(C)(C)C)c3Cl)N2C(=O)[C@@H](NC(=O)c2cc3cc(C(F)(F)P(=O)(O)O)ccc3s2)C1 [I-98] | > 1000
CC(=O)N1CC[C@H]2CC[C@@H](C(=O)N[C@H](CCC(N)=O)COc3cccc(CCCCC(=O)N[C@H](C(=O)N4C[C@H](O)C[C@H]4C(=O)N[C@@H](C)c4ccc(-c5scnc5C)cc4)C(C)(C)C)c3Cl)N2C(=O)[C@@H](NC(=O)c2cc3cc(C(=O)P(=O)(O)O)ccc3[nH]2)C1 [I-24] | 100 to 1000
CC(C)S(=O)(=O)c1ccc(CNC(=O)[C@H](CCC(N)=O)NC(=O)[C@@H]2CC[C@@H]3CCN(C(=O)C[C@H]4CC[C@@H](Cc5ccc6c(c5)n(C)c(=O)n6C5CCC(=O)NC5=O)CC4)C[C@H](NC(=O)c4cc5cc(C(=O)P(=O)(O)O)ccc5[nH]4)C(=O)N32)cc1 (stereo partly shown) [I-70] | 10 to 100
Cc1ncsc1-c1ccc([C@H](C)NC(=O)[C@@H]2C[C@@H](O)CN2C(=O)[C@@H](NC(=O)CCCc2cccc(OC[C@H](CCC(N)=O)NC(=O)[C@@H]3CC[C@@H]4CCN(C(=O)C(F)(F)F)C[C@H](NC(=O)c5cc6cc(C(=O)P(=O)(O)O)ccc6[nH]5)C(=O)N43)c2Cl)C(C)(C)C)cc1 [I-66] | < 10
CC(C)c1ccc(CNC(=O)[C@H](CCC(N)=O)NC(=O)[C@@H]2CC[C@@H]3CCN(C(=O)[C@H]4CC[C@@H](CCc5ccc6c(c5)n(C)c(=O)n6C5CCC(=O)NC5=O)CC4)C[C@H](NC(=O)c4cc5cc(C(F)(F)P(=O)(O)O)ccc5s4)C(=O)N32)cc1 (stereo partly shown) [I-97] | > 1000
Cn1c(=O)n(C2CCC(=O)NC2=O)c2ccc(C[C@H]3CC[C@@H](CC(=O)N4CC[C@H]5CC[C@@H](C(=O)N[C@@H](CCC(N)=O)C(=O)NC6(c7ccc(S(C)(=O)=O)cc7)CC6)N5C(=O)[C@@H](NC(=O)c5cc6cc(C(=O)P(=O)(O)O)ccc6[nH]5)C4)CC3)cc21 (stereo partly shown) [I-38] | 100 to 1000
Cn1c(=O)n(C2CCC(=O)NC2=O)c2ccc(C[C@H]3CC[C@@H](CC(=O)N4CC[C@H]5CC[C@@H](C(=O)NC6(CCC(N)=O)CCCC6)N5C(=O)[C@@H](NC(=O)c5cc6cc(C(=O)P(=O)(O)O)ccc6[nH]5)C4)CC3)cc21 (stereo partly shown) [I-29] | > 1000
Cc1ncsc1-c1ccc([C@H](C)NC(=O)[C@@H]2C[C@@H](O)CN2C(=O)[C@@H](NC(=O)CCCc2cccc(OC[C@H](CCC(N)=O)NC(=O)[C@@H]3CC[C@@H]4CCCC[C@H](NC(=O)c5cc6cc(C(=O)P(=O)(O)O)ccc6[nH]5)C(=O)N43)c2F)C(C)(C)C)cc1 [I-9] | < 10
Cc1ncsc1-c1ccc([C@H](C)NC(=O)[C@@H]2C[C@@H](O)CN2C(=O)[C@@H](NC(=O)CCCc2cccc(OC[C@H](CCC(N)=O)NC(=O)[C@@H]3CC[C@@H]4CCN(C(=O)C(C)C)C[C@H](NC(=O)c5cc6cc(C(=O)P(=O)(O)O)ccc6[nH]5)C(=O)N43)c2Cl)C(C)(C)C)cc1 [I-54] | < 10
Cc1ncsc1-c1ccc([C@H](C)NC(=O)[C@@H]2C[C@@H](O)CN2C(=O)[C@@H](NC(=O)CC2CCC(c3cccc(OC[C@H](CCC(N)=O)NC(=O)[C@@H]4Cc5cccc6c5N4C(=O)[C@@H](NC(=O)c4cc5cc(C(=O)P(=O)(O)O)ccc5[nH]4)CC6)c3Cl)CC2)C(C)(C)C)cc1 (stereo partly shown) [I-56] | 100 to 1000
Cn1c(=O)n(C2CCC(=O)NC2=O)c2ccc(NC[C@H]3CC[C@H](C(=O)N4CC[C@H]5CC[C@@H](C(=O)N[C@@H](CCC(N)=O)C(=O)NCc6ccc(S(C)(=O)=O)cc6)N5C(=O)[C@@H](NC(=O)c5cc6cc(C(=O)P(=O)(O)O)ccc6[nH]5)C4)CC3)cc21 (stereo partly shown) [I-47] | 10 to 100
Cn1c(=O)n(C2CCC(=O)NC2=O)c2ccc(CC[C@H]3CC[C@H](C(=O)N4CC[C@H]5CC[C@@H](C(=O)N[C@@H](CCC(N)=O)C(=O)NCc6ccc(S(C)(=O)=O)cc6)N5C(=O)[C@@H](NC(=O)c5cc6cc(C(=O)P(=O)(O)O)ccc6[nH]5)C4)CC3)cc21 (stereo partly shown) [I-73] | 10 to 100
Cc1ncsc1-c1ccc([C@H](C)NC(=O)[C@@H]2C[C@@H](O)CN2C(=O)[C@@H](NC(=O)CCCc2cccc(OC[C@H](CCC(N)=O)NC(=O)[C@@H]3CCCN3C(=O)CNC(=O)c3cc4cc(C(=O)P(=O)(O)O)ccc4[nH]3)c2Cl)C(C)(C)C)cc1 [I-13] | 10 to 100
CC(C)c1ccc(CNC(=O)[C@H](CCC(N)=O)NC(=O)[C@@H]2CC[C@@H]3CCN(C(=O)[C@H]4CC[C@@H](CCc5ccc6c(c5)n(C)c(=O)n6C5CCC(=O)NC5=O)CC4)C[C@H](NC(=O)c4cc5cc(C(=O)P(=O)(O)O)ccc5[nH]4)C(=O)N32)c(F)c1 (stereo partly shown) [I-34] | 10 to 100
CC(C)c1ccc(CNC(=O)[C@H](CCC(N)=O)NC(=O)[C@@H]2CC[C@@H]3CCN(C(=O)[C@H]4CC[C@@H](CCc5ccc6c(c5)n(C)c(=O)n6C5CCC(=O)NC5=O)CC4)C[C@H](NC(=O)c4cc5cc(C(=O)P(=O)(O)O)ccc5[nH]4)C(=O)N32)cc1 (stereo partly drawn) [I-59, (2-(((5S,8S,10aR)-8-(((S)-5-amino-1-((4-isopropylbenzyl)amino)-1,5-dioxopentan-2-yl)carbamoyl)-3-((1r,4R)-4-(2-(1-(2,6-dioxopiperidin-3-yl)-3-methyl-2-oxo-2,3-dihydro-1H-benzo[d]imidazol-5-yl)ethyl)cyclohexane-1-carbonyl)-6-oxodecahydropyrrolo[1,2-a][1,5]diazocin-5-yl)carbamoyl)-1H-indole-5-carbonyl)phosphonic acid] | 10 to 100
Cc1ncsc1-c1ccc([C@H](C)NC(=O)[C@@H]2C[C@@H](O)CN2C(=O)[C@@H](NC(=O)CC2CCC(c3cccc(OC[C@H](CCC(N)=O)NC(=O)[C@@H]4Cc5cccc6c5N4C(=O)[C@@H](NC(=O)c4cc5cc(C(=O)P(=O)(O)O)ccc5[nH]4)CC6)c3Cl)CC2)C(C)(C)C)cc1 (stereo partly shown) [I-55] | 10 to 100
Cn1c(=O)n(C2CCC(=O)NC2=O)c2ccc(CC[C@H]3CC[C@@H](C(=O)N4CC[C@H]5CC[C@@H](C(=O)N[C@@H](CCC(N)=O)c6nc7ccccc7s6)N5C(=O)[C@@H](NC(=O)c5cc6cc(C(=O)P(=O)(O)O)ccc6[nH]5)C4)CC3)cc21 (stereo partly shown) [I-37] | 10 to 100

Same assay, conditions: read-out: STAT3 HiBIT A549 degradation 24 h: Average external-Abs DC50, 24 h compound incubation

SMILES | DC50 [nM]
Cc1ncsc1-c1ccc([C@H](C)NC(=O)[C@@H]2C[C@@H](O)CN2C(=O)[C@@H](NC(=O)CCCc2cccc(OC[C@H](CCC(N)=O)NC(=O)[C@@H]3CC[C@@H]4CCCC[C@H](NC(=O)c5cc6cc(C(=O)P(=O)(O)O)ccc6s5)C(=O)N43)c2Cl)C(C)(C)C)cc1 [I-88] | > 1000
COC(=O)N1CC[C@H]2CC[C@@H](C(=O)N[C@@H](CCC(N)=O)COc3cccc(CCCC(=O)N[C@H](C(=O)N4C[C@H](O)C[C@H]4C(=O)N[C@@H](C)c4ccc(-c5scnc5C)cc4)C(C)(C)C)c3Cl)N2C(=O)[C@@H](NC(=O)c2cc3cc(C(=O)P(=O)(O)O)ccc3s2)C1 [I-86] | > 1000
